The record followed here is ChEMBL document CHEMBL5634174, “Biological evaluation of sulfonate and sulfate analogues of lithocholic acid: A bioisosterism-guided approach towards the discovery of potential sialyltransferase inhibitors for antimetastatic study” (Bioorg Med Chem Lett, 2024).

The term inhibition denotes the percentage by which the read-out fell short of the control. One may read the IC50 as the point on the concentration scale where inhibition reaches its midpoint.

Active and inactive are the calls of the source. The rule behind the calls is not given here.

For experiment [1], the target named is Integrin alpha-5 (Homo sapiens) (UniProt P08648). In words: Inhibition of integrin alpha-5 in human MDA-MB-231 cells assessed as decrease in sialylation level incubated for 48 hrs by Western blot analysis. The experiment is classed as cell-based. The conditions noted are these: dose 20-80 µM. (A western blot detects proteins with antibodies after separation by electrophoresis.)

Experiment [2] deals with Paxillin (Homo sapiens) (UniProt P49023). In words: Inhibition of paxillin phosphorylation at Y118 residue in human MDA-MB-231 cells at 80 uM incubated for 2 hrs by Western blot analysis. The class given is cell-based.
Experiment [3] in a line: Selectivity index, ratio of IC50 for inhibition of rat ST3GAL1 to IC50 for inhibition of human ST6GAL1.
In experiment [4] the target is Focal adhesion kinase 1 (Homo sapiens) (UniProt Q05397). In words: Inhibition of FAK phosphorylation at Y397 residue in human MDA-MB-231 cells incubated for 2 hrs by Western blot analysis. The class given is cell-based. The conditions noted are these: dose 20-80 µM.
Experiment [5] deals with Integrin beta-1 (Homo sapiens) (UniProt P05556). In words: Inhibition of integrin beta-1 in human MDA-MB-231 cells assessed as decrease in sialylation level incubated for 48 hrs by Western blot analysis. To be noted: dose 20-80 µM. The experiment is classed as cell-based.
The target in experiment [6] is Focal adhesion kinase 1 (Homo sapiens) (UniProt Q05397). In words: Inhibition of FAK phosphorylation at Y576/577 residue in human MDA-MB-231 cells incubated for 2 hrs by Western blot analysis. The class given is cell-based. The conditions noted are these: dose 20-80 µM.
Experiment [7] concerns the target T1, Sialyltransferase ST3Gal-I (Rattus norvegicus) (UniProt Q6H8N0).
T1 sequence (whole entry): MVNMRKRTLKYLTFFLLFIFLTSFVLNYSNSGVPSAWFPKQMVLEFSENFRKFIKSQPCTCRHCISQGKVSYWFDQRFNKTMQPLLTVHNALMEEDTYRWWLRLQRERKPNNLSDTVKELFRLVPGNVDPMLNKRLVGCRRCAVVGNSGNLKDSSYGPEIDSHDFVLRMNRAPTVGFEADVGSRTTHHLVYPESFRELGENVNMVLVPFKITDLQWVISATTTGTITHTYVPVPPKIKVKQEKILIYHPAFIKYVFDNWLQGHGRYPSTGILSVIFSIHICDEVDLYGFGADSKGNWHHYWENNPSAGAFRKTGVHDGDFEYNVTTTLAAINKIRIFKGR
In words: Inhibition of rat ST3GAL1 at 1000 uM by UPLC-based assay relative to control.

Experiment [8] addresses T2, Sialyltransferase ST3Gal-I (Rattus norvegicus, UniProt Q6H8N0).
T2 sequence (Q6H8N0 whole entry): T1 sequence (whole entry)
In words: Inhibition of rat ST3GAL1 by UPLC-based assay.

For experiment [9], the system named is MDA-MB-231. In words: Inhibition of cell invasion in human MDA-MB-231 cells assessed as reduction in cell adhesion to collagen IV at 60 uM incubated for 48 hrs. The experiment is classed as functional, cell-based.
Experiment [10] has as its target Paxillin (Homo sapiens) (UniProt P49023). In words: Inhibition of paxillin phosphorylation at Y118 residue in human MDA-MB-231 cells incubated for 2 hrs by Western blot analysis. The class given is cell-based. To be noted: dose 20-80 µM.
For experiment [11], the target named is T3, Beta-galactoside alpha-2,6-sialyltransferase 1 (Homo sapiens) (UniProt P15907).
T3 sequence (whole entry): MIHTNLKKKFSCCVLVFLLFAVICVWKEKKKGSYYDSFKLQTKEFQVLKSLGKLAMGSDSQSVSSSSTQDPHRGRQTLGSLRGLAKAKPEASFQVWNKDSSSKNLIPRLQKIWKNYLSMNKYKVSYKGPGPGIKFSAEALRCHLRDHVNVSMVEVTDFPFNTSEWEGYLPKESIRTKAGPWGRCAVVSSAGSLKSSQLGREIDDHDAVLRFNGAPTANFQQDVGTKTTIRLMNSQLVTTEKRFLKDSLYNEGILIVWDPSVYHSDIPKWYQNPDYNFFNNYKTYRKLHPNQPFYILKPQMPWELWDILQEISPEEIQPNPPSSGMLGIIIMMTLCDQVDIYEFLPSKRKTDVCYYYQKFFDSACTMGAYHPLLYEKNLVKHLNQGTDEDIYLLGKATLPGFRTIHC
In words: Inhibition of recombinant human N-terminal His tagged ST6GAL1 (44 to 406 residues) at 50 uM by UPLC-based assay relative to control.

Experiment [12] relates to MDA-MB-231. In words: Effect on total paxillin expression level in human MDA-MB-231 cells at 20 to 80 uM incubated for 2 hrs by Western blot analysis. To be noted: dose 20-80 µM. The experiment is classed as functional, cell-based.
Experiment [13] deals with Focal adhesion kinase 1 (Homo sapiens) (UniProt Q05397). In words: Inhibition of FAK phosphorylation at Y576/577 residue in human MDA-MB-231 cells at 80 uM incubated for 2 hrs by Western blot analysis. The experiment is classed as cell-based.
Experiment [14] has as its target T1, Sialyltransferase ST3Gal-I (Rattus norvegicus). In words: Inhibition of rat ST3GAL1 at 500 uM by UPLC-based assay relative to control.
Experiment [15] deals with T4, Beta-galactoside alpha-2,6-sialyltransferase 1 (Homo sapiens, UniProt P15907).
T4 sequence (P15907 whole entry): T3 sequence (whole entry)
In words: Inhibition of recombinant human N-terminal His tagged ST6GAL1 (44 to 406 residues) by UPLC-based assay.

Experiment [16] relates to MDA-MB-231. In words: Antimigratory activity against human MDA-MB-231 cells at 60 uM incubated for 16 hrs by transwell migration assay. The class given is functional, cell-based.
Experiment [17] deals with Focal adhesion kinase 1 (Homo sapiens) (UniProt Q05397). In words: Inhibition of FAK phosphorylation at Y397 residue in human MDA-MB-231 cells at 80 uM incubated for 2 hrs by Western blot analysis. The experiment is classed as cell-based.
Experiment [18] concerns the target Integrin beta-4 (Homo sapiens) (UniProt P16144). In words: Inhibition of integrin beta-4 in human MDA-MB-231 cells assessed as decrease in sialylation level incubated for 48 hrs by Western blot analysis. The class given is cell-based. To be noted: dose 20-80 µM.
The subject of experiment [19] is MDA-MB-231. In words: Inhibition of cell invasion in human MDA-MB-231 cells at 60 uM. The class given is functional, cell-based.
Experiment [20] concerns MDA-MB-231. In words: Effect on total FAK expression level in human MDA-MB-231 cells at 20 to 80 uM incubated for 2 hrs by Western blot analysis. The class given is functional, cell-based. To be noted: dose 20-80 µM.

Sequence of Focal adhesion kinase 1 (Homo sapiens) (Q05397 2-1052 limits assumed): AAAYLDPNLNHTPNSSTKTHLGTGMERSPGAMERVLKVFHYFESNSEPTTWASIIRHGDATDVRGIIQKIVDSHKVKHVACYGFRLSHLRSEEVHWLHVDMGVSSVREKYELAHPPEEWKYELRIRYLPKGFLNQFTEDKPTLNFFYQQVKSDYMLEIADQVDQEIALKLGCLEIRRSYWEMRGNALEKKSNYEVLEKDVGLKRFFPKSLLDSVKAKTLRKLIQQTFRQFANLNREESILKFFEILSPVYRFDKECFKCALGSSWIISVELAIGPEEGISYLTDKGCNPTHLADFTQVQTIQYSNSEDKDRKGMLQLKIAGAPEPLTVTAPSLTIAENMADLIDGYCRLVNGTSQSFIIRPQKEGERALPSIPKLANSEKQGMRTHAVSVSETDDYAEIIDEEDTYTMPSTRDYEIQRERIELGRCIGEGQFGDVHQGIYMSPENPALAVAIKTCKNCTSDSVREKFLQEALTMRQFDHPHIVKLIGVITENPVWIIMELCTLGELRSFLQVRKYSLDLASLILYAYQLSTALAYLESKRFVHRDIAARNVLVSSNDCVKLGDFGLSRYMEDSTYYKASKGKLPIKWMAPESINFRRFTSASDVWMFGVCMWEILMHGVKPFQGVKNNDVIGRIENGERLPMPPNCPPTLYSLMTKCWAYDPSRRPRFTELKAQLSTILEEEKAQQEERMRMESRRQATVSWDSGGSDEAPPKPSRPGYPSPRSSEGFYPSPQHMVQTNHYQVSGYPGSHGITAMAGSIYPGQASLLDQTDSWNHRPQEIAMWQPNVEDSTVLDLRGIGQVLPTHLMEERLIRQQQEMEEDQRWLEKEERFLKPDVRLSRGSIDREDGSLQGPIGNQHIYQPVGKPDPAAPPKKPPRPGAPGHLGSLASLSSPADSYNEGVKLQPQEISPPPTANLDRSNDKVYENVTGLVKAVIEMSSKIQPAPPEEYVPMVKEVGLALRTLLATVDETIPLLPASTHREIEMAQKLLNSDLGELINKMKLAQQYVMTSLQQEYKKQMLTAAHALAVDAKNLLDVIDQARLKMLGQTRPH
Sequence of Paxillin (Homo sapiens) (P49023 whole entry): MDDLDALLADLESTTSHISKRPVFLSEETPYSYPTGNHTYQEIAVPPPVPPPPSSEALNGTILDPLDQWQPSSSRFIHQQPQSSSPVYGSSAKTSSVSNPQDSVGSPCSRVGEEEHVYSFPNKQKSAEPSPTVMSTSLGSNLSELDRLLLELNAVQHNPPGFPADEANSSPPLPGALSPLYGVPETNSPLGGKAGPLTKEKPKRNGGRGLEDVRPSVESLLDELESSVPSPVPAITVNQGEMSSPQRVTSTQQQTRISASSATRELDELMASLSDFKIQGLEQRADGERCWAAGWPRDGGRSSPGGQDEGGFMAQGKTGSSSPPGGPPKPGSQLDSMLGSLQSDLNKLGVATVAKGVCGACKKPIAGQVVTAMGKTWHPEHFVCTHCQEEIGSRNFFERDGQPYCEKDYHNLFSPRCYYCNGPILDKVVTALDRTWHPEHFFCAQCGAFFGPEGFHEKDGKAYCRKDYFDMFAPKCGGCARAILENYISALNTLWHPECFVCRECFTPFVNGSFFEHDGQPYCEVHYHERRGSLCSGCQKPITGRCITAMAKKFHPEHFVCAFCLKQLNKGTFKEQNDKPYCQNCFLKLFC
Sequence of Integrin beta-1 (Homo sapiens) (P05556 whole entry): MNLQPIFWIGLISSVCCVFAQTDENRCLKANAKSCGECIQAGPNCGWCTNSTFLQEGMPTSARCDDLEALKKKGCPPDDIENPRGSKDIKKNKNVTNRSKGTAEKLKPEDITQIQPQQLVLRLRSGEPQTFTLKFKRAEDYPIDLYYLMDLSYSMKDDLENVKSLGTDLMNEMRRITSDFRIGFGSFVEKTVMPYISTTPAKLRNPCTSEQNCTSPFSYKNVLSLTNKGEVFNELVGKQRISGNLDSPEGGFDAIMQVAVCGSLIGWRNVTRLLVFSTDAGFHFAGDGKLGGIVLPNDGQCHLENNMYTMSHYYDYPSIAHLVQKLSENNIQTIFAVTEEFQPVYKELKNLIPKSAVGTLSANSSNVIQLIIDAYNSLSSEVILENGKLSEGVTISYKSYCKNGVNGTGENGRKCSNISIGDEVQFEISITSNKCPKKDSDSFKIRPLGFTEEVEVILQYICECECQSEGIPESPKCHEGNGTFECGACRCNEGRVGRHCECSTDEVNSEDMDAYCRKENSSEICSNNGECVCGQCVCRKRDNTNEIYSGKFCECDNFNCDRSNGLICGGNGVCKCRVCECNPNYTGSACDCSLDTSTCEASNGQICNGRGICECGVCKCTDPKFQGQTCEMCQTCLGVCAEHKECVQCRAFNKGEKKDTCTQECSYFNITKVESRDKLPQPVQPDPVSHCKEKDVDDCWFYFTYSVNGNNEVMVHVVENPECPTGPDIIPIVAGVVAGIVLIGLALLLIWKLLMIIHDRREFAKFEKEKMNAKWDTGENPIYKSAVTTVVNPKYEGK
Sequence of Integrin beta-4 (Homo sapiens) (P16144 whole entry): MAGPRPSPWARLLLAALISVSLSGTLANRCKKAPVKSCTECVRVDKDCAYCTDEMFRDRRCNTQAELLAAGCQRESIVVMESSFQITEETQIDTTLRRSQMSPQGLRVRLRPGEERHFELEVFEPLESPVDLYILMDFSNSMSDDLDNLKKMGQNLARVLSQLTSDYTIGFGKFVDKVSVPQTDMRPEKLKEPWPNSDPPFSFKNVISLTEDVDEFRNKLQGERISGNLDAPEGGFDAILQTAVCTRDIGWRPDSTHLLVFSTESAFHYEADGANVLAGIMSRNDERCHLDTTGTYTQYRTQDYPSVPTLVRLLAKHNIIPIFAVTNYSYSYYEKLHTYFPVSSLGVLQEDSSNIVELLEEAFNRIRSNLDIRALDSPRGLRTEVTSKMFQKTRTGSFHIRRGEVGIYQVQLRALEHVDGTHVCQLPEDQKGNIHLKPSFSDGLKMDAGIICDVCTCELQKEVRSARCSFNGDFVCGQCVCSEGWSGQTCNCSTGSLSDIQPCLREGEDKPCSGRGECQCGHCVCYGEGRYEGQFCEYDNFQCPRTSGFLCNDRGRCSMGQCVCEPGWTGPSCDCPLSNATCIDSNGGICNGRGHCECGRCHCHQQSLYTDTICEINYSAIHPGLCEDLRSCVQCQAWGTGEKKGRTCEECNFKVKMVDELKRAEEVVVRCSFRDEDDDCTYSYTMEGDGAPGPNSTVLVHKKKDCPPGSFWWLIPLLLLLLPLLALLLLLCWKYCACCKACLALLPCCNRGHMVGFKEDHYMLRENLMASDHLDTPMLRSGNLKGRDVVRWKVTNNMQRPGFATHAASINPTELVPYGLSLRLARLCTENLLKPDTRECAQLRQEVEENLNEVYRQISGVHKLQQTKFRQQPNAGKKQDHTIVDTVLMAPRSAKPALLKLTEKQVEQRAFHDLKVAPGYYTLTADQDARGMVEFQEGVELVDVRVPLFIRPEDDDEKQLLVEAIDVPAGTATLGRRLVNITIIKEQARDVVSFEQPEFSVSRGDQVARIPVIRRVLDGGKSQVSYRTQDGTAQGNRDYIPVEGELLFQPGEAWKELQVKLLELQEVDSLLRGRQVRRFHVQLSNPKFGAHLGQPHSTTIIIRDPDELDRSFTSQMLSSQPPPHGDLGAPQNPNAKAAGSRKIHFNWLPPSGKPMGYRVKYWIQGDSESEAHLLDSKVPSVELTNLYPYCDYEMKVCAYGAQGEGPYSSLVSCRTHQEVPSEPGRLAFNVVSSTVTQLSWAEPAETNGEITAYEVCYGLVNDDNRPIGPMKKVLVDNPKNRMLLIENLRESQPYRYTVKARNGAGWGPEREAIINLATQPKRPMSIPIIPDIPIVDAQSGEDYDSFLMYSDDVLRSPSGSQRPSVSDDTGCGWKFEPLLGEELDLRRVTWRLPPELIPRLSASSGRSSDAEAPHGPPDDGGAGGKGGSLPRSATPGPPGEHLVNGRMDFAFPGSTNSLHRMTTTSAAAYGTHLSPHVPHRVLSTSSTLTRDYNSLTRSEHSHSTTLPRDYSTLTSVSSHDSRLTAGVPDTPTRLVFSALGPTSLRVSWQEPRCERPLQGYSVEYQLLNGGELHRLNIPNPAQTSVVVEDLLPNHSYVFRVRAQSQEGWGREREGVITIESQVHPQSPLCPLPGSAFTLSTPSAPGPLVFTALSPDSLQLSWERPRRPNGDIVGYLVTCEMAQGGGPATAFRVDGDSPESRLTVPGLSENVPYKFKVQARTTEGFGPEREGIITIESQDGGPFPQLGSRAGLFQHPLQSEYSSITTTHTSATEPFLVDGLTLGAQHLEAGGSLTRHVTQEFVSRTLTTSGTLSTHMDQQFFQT

With `C[C@H](CCCOS(=O)(=O)O)[C@H]1CC[C@H]2[C@@H]3CC[C@@H]4C[C@H](O)CC[C@]4(C)[C@H]3CC[C@]12C`, the Activity result in [1], in [5] and in experiment [18] was “Dose-Dependent Effect” in each case. The inhibition entry in experiment [2], in experiment [9], in experiment [13], in [17] and in experiment [19] was “Active” throughout. Besides, in [3], the Ratio IC50 is above 60. Besides, the inhibition entry was “Dose-Dependent Effect” in experiment [4]; “Dose-Dependent Effect” in experiment [6]; 15% in [7]; “Dose-Dependent Effect” in [10]; 100% in [11]; 3% in experiment [14]. The IC50 in experiment [8] was above 1000 µM; in [15], 16.7 µM. For the same compound, the outcome in experiment [12] and in experiment [20] was inactive. Besides, in [16], the result was Active.
